Active and inactive are the calls of the source. The calls are words filed in the database; no cut-off is given here.
Key:
[1] = target: Autoinducer 2-binding periplasmic protein LuxP (Vibrio harveyi) (UniProt P54300); test: Agonist activity at Vibrio harveyi MM30 LuxP assessed as inhibition of autoinducer-2-induced quorum sensing; type: functional
[2] = target: Autoinducer 2-binding periplasmic protein LuxP (Vibrio harveyi, UniProt P54300); test: Agonist activity at Vibrio harveyi BB170 LuxP assessed as inhibition of autoinducer-2-induced quorum sensing after 5 hrs by luminescence assay; type: functional
Pseudomonas aeruginosa [3] = test: Inhibition of wild type Pseudomonas aeruginosa PAO1 growth at 100 uM; type: functional, organism-based
Pseudomonas aeruginosa [4] = test: Inhibition of Pseudomonas aeruginosa PAO-JP2-luxCDABE quorm sensing at 200 uM measured every 20 min by luminescence assay in presence of 3-oxo-C12-HSL
Pseudomonas aeruginosa [5] = test: Inhibition of wild type Pseudomonas aeruginosa PAO1-luxCDABE growth at >200 uM by luminescence assay; type: functional, organism-based
Pseudomonas aeruginosa [6] = test: Inhibition of Pseudomonas aeruginosa PAO-JP2-luxCDABE quorm sensing measured every 20 mins in presence of 3-oxo-C12-HSL
[7] = system: Pseudomonas aeruginosa PAO1; test: Inhibition of wild type Pseudomonas aeruginosa PAO1-luxCDABE quorm sensing measured after 20 mins by luminescence assay
[8] = system: Pseudomonas aeruginosa PAO1; test: Inhibition of wild type Pseudomonas aeruginosa PAO1 assessed as reduction in pyocyanin production at 100 uM after 19 hrs […]; parameters: scale not given: the % may be the effect or the level left

Chain of Autoinducer 2-binding periplasmic protein LuxP (Vibrio harveyi) (P54300 whole entry): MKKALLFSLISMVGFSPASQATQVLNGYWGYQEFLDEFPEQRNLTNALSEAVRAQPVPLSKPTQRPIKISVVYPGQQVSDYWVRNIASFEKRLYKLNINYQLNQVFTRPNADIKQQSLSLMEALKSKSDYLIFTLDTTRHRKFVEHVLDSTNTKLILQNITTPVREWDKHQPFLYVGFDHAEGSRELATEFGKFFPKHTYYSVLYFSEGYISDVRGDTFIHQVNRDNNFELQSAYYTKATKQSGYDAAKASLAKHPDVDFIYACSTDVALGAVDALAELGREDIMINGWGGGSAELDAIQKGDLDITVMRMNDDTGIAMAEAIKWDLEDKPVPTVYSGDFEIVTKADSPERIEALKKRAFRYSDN
Chain of Autoinducer 2-binding periplasmic protein LuxP (P54300 whole entry): as above

For `CCCCCCCC(=O)C(=O)[C@@H](O)CO`, the Activity [1] was “inactive”, the EC50 [2] was 1810 nM and the inhibition (Pseudomonas aeruginosa [3]) was “inactive”.
With `CCCCCC(=O)C(=O)[C@@H](O)CO` the inhibition (Pseudomonas aeruginosa [4]) was 40%, the Activity [1] was “inactive” and the inhibition (Pseudomonas aeruginosa [5]) was “inactive”. For the same molecule, the EC50 [2] was 1350 nM, the Activity (Pseudomonas aeruginosa [6]) was “Dose-dependent effect” and the inhibition [7] was 40%. It also gave an Activity [8] of 53%.
For `CC(=O)C(=O)[C@@H](O)CO`, the Activity [1] was “inactive”, the EC50 [2] was 150 nM and the inhibition (Pseudomonas aeruginosa [3]) was “inactive”.
With `CCCC(=O)C(=O)[C@@H](O)CO` the Activity [1] was “inactive”, the EC50 [2] was 750 nM and the inhibition (Pseudomonas aeruginosa [3]) was “inactive”.
In the case of `CCCCC(=O)C(=O)[C@@H](O)CO`, the inhibition (Pseudomonas aeruginosa [4]) is reported as 40%, the Activity [1] is reported as “inactive” and the inhibition (Pseudomonas aeruginosa [5]) is reported as “inactive”. The EC50 [2] was 1010 nM, the Activity (Pseudomonas aeruginosa [6]) was “Dose-dependent effect” and the inhibition [7] was 40%. The Activity [8] was 59%.
For `CCCCCCC(=O)C(=O)[C@@H](O)CO`, the Activity [1] was “inactive”, the EC50 [2] was 1520 nM and the inhibition (Pseudomonas aeruginosa [3]) was “inactive”.
In the case of `CCC(=O)C(=O)[C@@H](O)CO`, the Activity [1] is reported as “Active”, the EC50 [2] is reported as 580 nM and the inhibition (Pseudomonas aeruginosa [3]) is reported as “inactive”.
